Measurements from patent US20240182489A1, “New 5,6,7,8-Tetrahydropyrido[4',3':4,5]thieno[2,3-d]pyrimidin-4(3H)-one Derivatives as Sigma Ligands” (ACONDICIONAMIENTO TARRASENSE, priority 2021, published 2024).

Target: T1, human σ1 receptor (Homo sapiens, UniProt Q99720)
T1 construct: expressed in transfected cells; host or cells: HEK-293 (membranes)
Experiment: Human σ1 receptor radioligand assay
Type: binding
Details: [3H](+)-pentazocine radioligand, transfected HEK-293 membranes

T1 sequence (Q99720 whole entry): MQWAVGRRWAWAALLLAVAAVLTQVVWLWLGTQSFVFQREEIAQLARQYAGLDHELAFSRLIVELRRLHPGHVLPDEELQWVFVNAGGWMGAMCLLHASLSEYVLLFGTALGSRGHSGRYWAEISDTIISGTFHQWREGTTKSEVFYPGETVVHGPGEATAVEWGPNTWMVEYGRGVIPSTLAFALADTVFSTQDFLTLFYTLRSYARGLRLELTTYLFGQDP

| Ki [nM] | SMILES |
| --- | --- |
| > 500 | C[C@H](c1ccc(F)cc1Cl)n1cnc2sc3c(c2c1=O)CCNC3 [Example 26, (R)-3-(1-(2-chloro-4-fluorophenyl)ethyl)-5,6,7,8-tetrahydropyrido[4′,3′:4,5]thieno[2,3-d]pyrimidin-4(3H)-one] |
| > 500 | C[C@H](c1ccc(F)cc1)n1cnc2sc3c(c2c1=O)CNCC3 [Example 17, (R)-3-(1-(4-Fluorophenyl)ethyl)-5,6,7,8-tetrahydropyrido[3′,4′:4,5]thieno[2,3-d]pyrimidin-4(3H)-one] |
| < 500 | C[C@@H](c1cc(Cl)ccc1F)n1cnc2sc3c(c2c1=O)CCNC3 [Example 29, (S)-3-(1-(5-Chloro-2-fluorophenyl)ethyl)-5,6,7,8-tetrahydropyrido[4′,3′:4,5]thieno[2,3-d]pyrimidin-4(3H)-one] |
| > 500 | C[C@H](c1ccc(C#N)c(F)c1)n1cnc2sc3c(c2c1=O)CCNC3 [Example 20, (R)-2-fluoro-4-(1-(4-oxo-5,6,7,8-tetrahydropyrido[4′,3′:4,5]thieno[2,3-d]pyrimidin-3(4H)-yl)ethyl)benzonitrile] |
| < 100 | C[C@H](c1cc(F)cc(Cl)c1)n1cnc2sc3c(c2c1=O)CCNC3 [Example 28, (R)-3-(1-(3-chloro-5-fluorophenyl)ethyl)-5,6,7,8-tetrahydropyrido[4′,3′:4,5]thieno[2,3-d]pyrimidin-4(3H)-one] |
| < 500 | C[C@@H](c1ccc(C#N)c(F)c1)n1cnc2sc3c(c2c1=O)CCNC3 [Example 19, (S)-2-Fluoro-4-(1-(4-oxo-5,6,7,8-tetrahydropyrido[4′,3′:4,5]thieno[2,3-d]pyrimidin-3(4H)-yl)ethyl)benzonitrile] |

More lines, now with the values behind:

| SMILES | Ki [nM] |
| --- | --- |
| Cc1nc(-c2ccc(C(C)n3cnc4sc5c(c4c3=O)CCNC5)cc2)no1 (centres unmarked) [Example 24, 3-(1-(4-(5-Methyl-1,2,4-oxadiazol-3-yl)phenyl)ethyl)-5,6,7,8-tetrahydropyrido[4′,3′:4,5]thieno[2,3-d]pyrimidin-4(3H)-one] | > 500 |
| C[C@@H](c1ccc(F)cc1Cl)n1cnc2sc3c(c2c1=O)CCNC3 [Example 25, (S)-3-(1-(2-Chloro-4-fluorophenyl)ethyl)-5,6,7,8-tetrahydropyrido[4′,3′:4,5]thieno[2,3-d]pyrimidin-4(3H)-one] | < 500 |
| C[C@H](c1cc(F)cc(C#N)c1)n1cnc2sc3c(c2c1=O)CCNC3 [Example 30, (R)-3-Fluoro-5-(1-(4-oxo-5,6,7,8-tetrahydropyrido[4′,3′:4,5]thieno[2,3-d]pyrimidin-3(4H)-yl)ethyl)benzonitrile] | < 100 |
| C[C@H](c1cccc(C#N)c1)n1cnc2sc3c(c2c1=O)CCNC3 [Example 14, (R)-3-(1-(4-Oxo-5,6,7,8-tetrahydropyrido[4′,3′:4,5]thieno[2,3-d]pyrimidin-3(4H)-yl)ethyl)benzonitrile] | < 100 |
| C[C@@H](c1cc(F)cc(Cl)c1)n1cnc2sc3c(c2c1=O)CCNC3 [Example 27, (S)-3-(1-(3-Chloro-5-fluorophenyl)ethyl)-5,6,7,8-tetrahydropyrido[4′,3′:4,5]thieno[2,3-d]pyrimidin-4(3H)-one] | < 100 |
